Test system: Insulinoma INS-1 cells derived from rat pancreatic β cells
Assay: Antiapoptotic effects on pancreatic β cells (cleaved caspase-3 western blotting, thapsigargin-induced)
Assay type: cell-based
Conditions: thapsigargin 300 nM, nobiletin concentration 20 μM, 14 hours, FIG. 20
Procedure: Insulinoma INS-1 cells derived from rat pancreatic β cells were seeded into a 6-well dish at 8×10^5 cells/well. […] After 14 hours of treatment, the cells were collected and subjected to SDS-PAGE, and protein expression in pancreatic β cells was analyzed by western blotting using a cleaved caspase-3 antibody as an indicator of apoptosis. Correction was made using the expression level of 3-actin as an internal standard.

## COc1ccc(-c2cc(=O)c3c(OC)c(OC)c(OC)c(OC)c3o2)cc1OC [nobiletin alone, nobiletin]
  Suppression of thapsigargin-induced increase in cleaved caspase 3 (antiapoptotic activity): The effects were comparative with nobiletin alone

— patent US20260248824A1, “LIPID NANOPARTICLES” (SHIZUOKA PREFECTURAL UNIVERSITY CORPORATION, priority 2023, published 2026)
